# Reference: publication PMC9062515, “Identification of the Biosynthetic Pathway of Glycine Betaine That Is Responsible for Salinity Tolerance in Halophilic Thioalkalivibrio versutus D301” (Frontiers in Microbiology, 2022)
# Tests used:
# TvSDMT = target: T1, TvSDMT (Thioalkalivibrio versutus, UniProt A0A0G3G397); assay: methyltransferase assay, HPLC of product; format: biochemical; details: 10 mM SAM, MgCl2, pH 7.5, 37 °C
# T1 construct: gene TVD_00880; His-tagged, pET-28a(+), E. coli BL21(DE3), Ni Sepharose; calculated 32 kDa
# T1 sequence (A0A0G3G397 1-282): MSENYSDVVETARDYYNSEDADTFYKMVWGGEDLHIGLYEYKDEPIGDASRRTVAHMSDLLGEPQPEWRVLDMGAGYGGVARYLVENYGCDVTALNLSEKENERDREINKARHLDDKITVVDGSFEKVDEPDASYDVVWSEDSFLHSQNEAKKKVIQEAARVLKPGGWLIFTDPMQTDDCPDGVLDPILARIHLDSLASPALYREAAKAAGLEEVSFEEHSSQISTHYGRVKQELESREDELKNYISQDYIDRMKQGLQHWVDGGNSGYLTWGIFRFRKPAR
# TvGMT = target: T2, TvGMT (Thioalkalivibrio versutus, UniProt A0A0G3G560); assay: methyltransferase assay, HPLC of product; format: biochemical; details: 250 mM glycine, 10 mM SAM, MgCl2, pH 7.5, 37 °C
# T2 construct: gene TVD_00875; His-tagged, pET-28a(+), E. coli BL21(DE3), Ni Sepharose; calculated 32 kDa
# T2 sequence (A0A0G3G560 1-272): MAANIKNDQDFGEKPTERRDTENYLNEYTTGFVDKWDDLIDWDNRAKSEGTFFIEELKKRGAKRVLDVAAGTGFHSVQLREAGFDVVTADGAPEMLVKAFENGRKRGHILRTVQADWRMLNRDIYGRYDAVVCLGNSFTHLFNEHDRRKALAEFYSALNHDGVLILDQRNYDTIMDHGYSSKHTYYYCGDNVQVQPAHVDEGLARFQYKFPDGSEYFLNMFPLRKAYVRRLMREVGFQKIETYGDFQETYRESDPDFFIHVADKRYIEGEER
smiles,measurement,setting,value
CN(C)CC(=O)O [dimethylglycine],"methyltransferase assay, HPLC of product",TvSDMT; 50 mM dimethylglycine,"exhibited activities on both sarcosine and dimethylglycine, showing a higher specific activity toward dimethylglycine"
NCC(=O)O [glycine],"methyltransferase assay, HPLC of product",TvGMT,The purified TVD_RS00875 converted glycine to sarcosine with a relatively high specific activity
CNCC(=O)O [sarcosine],"methyltransferase assay, HPLC of product",TvSDMT; 60 mM sarcosine,"TvSDMT, exhibited activities on both sarcosine and dimethylglycine"
